From PMC8870583, “EGCG Promotes FUS Condensate Formation in a Methylation-Dependent Manner” (Cells, 2022) come the findings set out here.

One data set deals with T1, FUS^RGG3PY (Homo sapiens, UniProt P35637).
T1 construct: RGG3-PY region, residues 454-526, unmethylated; His6-protein A tag cut by TEV; E. coli BL21(DE3) Star
T1 sequence (P35637 454-526): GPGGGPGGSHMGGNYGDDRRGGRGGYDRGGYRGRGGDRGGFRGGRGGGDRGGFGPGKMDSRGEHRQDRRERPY
Nature of the data set: 1H-15N HSQC NMR titration (CSP). Format: binding. Conditions: no RNA; EGCG 10-500 µM; 30 µM protein; pH 6.0, 150 mM NaCl, 25 °C; several sites, non-specific.

The target in the next data set is FUS RGG3PY (UniProt P35637 454-526). Nature of the data set: NMR 1H-15N HSQC titration; 30 uM protein, 0-7.5 uM RNA; unmethylated; CSPs lower than methylated at 4:1, line broadening; 50 mM sodium succinate pH 6.0, 150 mM NaCl, 2 mM TCEP, 0.04% NaN3, 10% D2O, 25 C. Conditions: protein: recombinant; tags: His6-protein A tag removed by TEV.

On to `O=C(O[C@@H]1Cc2c(O)cc(O)cc2O[C@@H]1c1cc(O)c(O)c(O)c1)c1cc(O)c(O)c(O)c1` [EGCG], for which the “1H-15N HSQC NMR titration (CSP)” value on FUS^RGG3PY is listed as “EGCG can directly interact with the RGG3-PY region of FUS”.

As for UGUGUGUGUGUGUGUGUGUGUGUG (ssRNA) [(UG)12 RNA], the binding result with FUS RGG3PY was “binds”.
